{"source": "patent US20240226125A1", "about": "“USE OF SOTAGLIFLOZIN FOR THE TREATMENT OF PATIENTS WITH TYPE 1 DIABETES MELLITUS” (priority 2019, published 2024)", "system": "adult patients with Type 1 Diabetes Mellitus who have inadequate glycemic control with insulin therapy", "assay": "inTandem 1 and inTandem 2 pooled double-blind placebo-controlled clinical studies, efficacy", "format": "in vivo, human", "key": {"[1]": {"conditions": "200 mg vs placebo, Baseline BMI <27 kg/m^2, Week 24"}, "[2]": {"conditions": "200 mg vs placebo, Baseline BMI <27 kg/m^2, Week 52"}, "[3]": {"conditions": "200 mg vs placebo, Baseline BMI ≥27 kg/m^2, Week 24"}, "[4]": {"conditions": "200 mg vs placebo, Baseline BMI ≥27 kg/m^2, Week 52"}, "[5]": {"conditions": "200 mg, Baseline BMI <27 kg/m^2, Week 24"}, "[6]": {"conditions": "200 mg, Baseline BMI <27 kg/m^2, Week 52"}, "[7]": {"conditions": "200 mg, Baseline BMI ≥27 kg/m^2, Week 24"}, "[8]": {"conditions": "200 mg, Baseline BMI ≥27 kg/m^2, Week 52"}, "[9]": {"conditions": "400 mg vs placebo, Baseline BMI <27 kg/m^2, Week 24"}, "[10]": {"conditions": "400 mg vs placebo, Baseline BMI <27 kg/m^2, Week 52"}, "[11]": {"conditions": "400 mg vs placebo, Baseline BMI ≥27 kg/m^2, Week 24"}, "[12]": {"conditions": "400 mg vs placebo, Baseline BMI ≥27 kg/m^2, Week 52"}, "[13]": {"conditions": "400 mg, Baseline BMI <27 kg/m^2, Week 24"}, "[14]": {"conditions": "400 mg, Baseline BMI <27 kg/m^2, Week 52"}}}
{"smiles": "CCOc1ccc(Cc2cc([C@@H]3O[C@H](SC)[C@@H](O)[C@H](O)[C@H]3O)ccc2Cl)cc1", "note": "[sotagliflozin, (2S,3R,4R,5S,6R)-2-(4-chloro-3-(4-ethoxybenzyl)phenyl)-6-(methylthio)tetrahydro-2H-pyran-3,4,5-triol]", "values": [{"measurement": "2-hour postprandial plasma glucose (mg/dL) LS Mean Difference (SE)", "setting": "[1]", "value": "−66.0 (20.22) mg/dL"}, {"measurement": "A1C (%) LS Mean Difference (SE)", "setting": "[1]", "value": "−0.32 (0.062) %"}, {"measurement": "Body weight (kg) LS Mean Difference (SE)", "setting": "[1]", "value": "−2.06 (0.240) kg"}, {"measurement": "DDS2 (score) LS Mean Difference (SE)", "setting": "[1]", "value": "−0.4 (0.16) score"}, {"measurement": "DTSQ (score) LS Mean Difference (SE)", "setting": "[1]", "value": "1.7 (0.42) score"}, {"measurement": "Fasting plasma glucose (mg/dL) LS Mean Difference (SE)", "setting": "[1]", "value": "−15.7 (5.69) mg/dL"}, {"measurement": "SBP (mmHg) LS Mean Difference (SE)", "setting": "[1]", "value": "−3.1 (0.97) mmHg"}, {"measurement": "Time in range (%) LS Mean Difference (SE)", "setting": "[1]", "value": "1.638 (3.8450) %"}, {"measurement": "A1C (%) LS Mean Difference (SE)", "setting": "[2]", "value": "−0.20 (0.078) %"}, {"measurement": "Body weight (kg) LS Mean Difference (SE)", "setting": "[2]", "value": "−2.26 (0.317) kg"}, {"measurement": "SBP (mmHg) LS Mean Difference (SE)", "setting": "[2]", "value": "−4.1 (1.05) mmHg"}, {"measurement": "2-hour postprandial plasma glucose (mg/dL) LS Mean Difference (SE)", "setting": "[3]", "value": "−19.0 (14.71) mg/dL"}, {"measurement": "A1C (%) LS Mean Difference (SE)", "setting": "[3]", "value": "−0.39 (0.046) %"}, {"measurement": "Body weight (kg) LS Mean Difference (SE)", "setting": "[3]", "value": "−2.27 (0.272) kg"}, {"measurement": "DDS2 (score) LS Mean Difference (SE)", "setting": "[3]", "value": "−0.6 (0.13) score"}, {"measurement": "DTSQ (score) LS Mean Difference (SE)", "setting": "[3]", "value": "2.6 (0.35) score"}, {"measurement": "Fasting plasma glucose (mg/dL) LS Mean Difference (SE)", "setting": "[3]", "value": "−15.7 (4.57) mg/dL"}, {"measurement": "SBP (mmHg) LS Mean Difference (SE)", "setting": "[3]", "value": "−1.3 (0.87) mmHg"}, {"measurement": "Time in range (%) LS Mean Difference (SE)", "setting": "[3]", "value": "8.171 (2.9713) %"}, {"measurement": "A1C (%) LS Mean Difference (SE)", "setting": "[4]", "value": "−0.24 (0.056) %"}, {"measurement": "Body weight (kg) LS Mean Difference (SE)", "setting": "[4]", "value": "−3.01 (0.357) kg"}, {"measurement": "SBP (mmHg) LS Mean Difference (SE)", "setting": "[4]", "value": "−2.1 (0.90) mmHg"}, {"measurement": "2-hour postprandial plasma glucose (mg/dL) LS Mean change (SE)", "setting": "[5]", "value": "−49.5 (17.63) mg/dL"}, {"measurement": "A1C (%) LS Mean change (SE)", "setting": "[5]", "value": "−0.38 (0.047) %"}, {"measurement": "Body weight (kg) LS Mean change (SE)", "setting": "[5]", "value": "−1.43 (0.177) kg"}, {"measurement": "DDS2 (score) LS Mean change (SE)", "setting": "[5]", "value": "−0.2 (0.13) score"}, {"measurement": "DTSQ (score) LS Mean change (SE)", "setting": "[5]", "value": "1.7 (0.33) score"}, {"measurement": "Fasting plasma glucose (mg/dL) LS Mean change (SE)", "setting": "[5]", "value": "−10.8 (4.22) mg/dL"}, {"measurement": "SBP (mmHg) LS Mean change (SE)", "setting": "[5]", "value": "−3.0 (0.74) mmHg"}, {"measurement": "Time in range (%) LS Mean change (SE)", "setting": "[5]", "value": "−0.532 (2.9540) %"}, {"measurement": "A1C (%) LS Mean change (SE)", "setting": "[6]", "value": "−0.19 (0.057) %"}, {"measurement": "Body weight (kg) LS Mean change (SE)", "setting": "[6]", "value": "−1.57 (0.230) kg"}, {"measurement": "SBP (mmHg) LS Mean change (SE)", "setting": "[6]", "value": "−1.4 (0.79) mmHg"}, {"measurement": "2-hour postprandial plasma glucose (mg/dL) LS Mean change (SE)", "setting": "[7]", "value": "−36.8 (11.72) mg/dL"}, {"measurement": "A1C (%) LS Mean change (SE)", "setting": "[7]", "value": "−0.43 (0.034) %"}, {"measurement": "Body weight (kg) LS Mean change (SE)", "setting": "[7]", "value": "−1.93 (0.196) kg"}, {"measurement": "DDS2 (score) LS Mean change (SE)", "setting": "[7]", "value": "−0.5 (0.10) score"}, {"measurement": "DTSQ (score) LS Mean change (SE)", "setting": "[7]", "value": "2.3 (0.26) score"}, {"measurement": "Fasting plasma glucose (mg/dL) LS Mean change (SE)", "setting": "[7]", "value": "−9.3 (3.33) mg/dL"}, {"measurement": "SBP (mmHg) LS Mean change (SE)", "setting": "[7]", "value": "−2.9 (0.64) mmHg"}, {"measurement": "Time in range (%) LS Mean change (SE)", "setting": "[7]", "value": "6.254 (2.1983) %"}, {"measurement": "A1C (%) LS Mean change (SE)", "setting": "[8]", "value": "−0.24 (0.041) %"}, {"measurement": "Body weight (kg) LS Mean change (SE)", "setting": "[8]", "value": "−2.16 (0.254) kg"}, {"measurement": "SBP (mmHg) LS Mean change (SE)", "setting": "[8]", "value": "−1.7 (0.66) mmHg"}, {"measurement": "2-hour postprandial plasma glucose (mg/dL) LS Mean Difference (SE)", "setting": "[9]", "value": "−86.1 (21.27) mg/dL"}, {"measurement": "A1C (%) LS Mean Difference (SE)", "setting": "[9]", "value": "−0.27 (0.063) %"}, {"measurement": "Body weight (kg) LS Mean Difference (SE)", "setting": "[9]", "value": "−2.55 (0.243) kg"}, {"measurement": "DDS2 (score) LS Mean Difference (SE)", "setting": "[9]", "value": "−0.5 (0.16) score"}, {"measurement": "DTSQ (score) LS Mean Difference (SE)", "setting": "[9]", "value": "1.5 (0.43) score"}, {"measurement": "Fasting plasma glucose (mg/dL) LS Mean Difference (SE)", "setting": "[9]", "value": "−16.4 (5.78) mg/dL"}, {"measurement": "SBP (mmHg) LS Mean Difference (SE)", "setting": "[9]", "value": "−3.5 (0.98) mmHg"}, {"measurement": "Time in range (%) LS Mean Difference (SE)", "setting": "[9]", "value": "6.335 (3.8492) %"}, {"measurement": "A1C (%) LS Mean Difference (SE)", "setting": "[10]", "value": "−0.21 (0.079) %"}, {"measurement": "Body weight (kg) LS Mean Difference (SE)", "setting": "[10]", "value": "−2.41 (0.324) kg"}, {"measurement": "SBP (mmHg) LS Mean Difference (SE)", "setting": "[10]", "value": "−3.7 (1.08) mmHg"}, {"measurement": "2-hour postprandial plasma glucose (mg/dL) LS Mean Difference (SE)", "setting": "[11]", "value": "−21.7 (13.93) mg/dL"}, {"measurement": "A1C (%) LS Mean Difference (SE)", "setting": "[11]", "value": "−0.45 (0.045) %"}, {"measurement": "Body weight (kg) LS Mean Difference (SE)", "setting": "[11]", "value": "−3.32 (0.270) kg"}, {"measurement": "DDS2 (score) LS Mean Difference (SE)", "setting": "[11]", "value": "−0.7 (0.13) score"}, {"measurement": "DTSQ (score) LS Mean Difference (SE)", "setting": "[11]", "value": "2.6 (0.35) score"}, {"measurement": "Fasting plasma glucose (mg/dL) LS Mean Difference (SE)", "setting": "[11]", "value": "−25.0 (4.53) mg/dL"}, {"measurement": "SBP (mmHg) LS Mean Difference (SE)", "setting": "[11]", "value": "−2.5 (0.87) mmHg"}, {"measurement": "Time in range (%) LS Mean Difference (SE)", "setting": "[11]", "value": "15.051 (2.8562) %"}, {"measurement": "A1C (%) LS Mean Difference (SE)", "setting": "[12]", "value": "−0.38 (0.055) %"}, {"measurement": "Body weight (kg) LS Mean Difference (SE)", "setting": "[12]", "value": "−4.46 (0.353) kg"}, {"measurement": "SBP (mmHg) LS Mean Difference (SE)", "setting": "[12]", "value": "−3.6 (0.89) mmHg"}, {"measurement": "2-hour postprandial plasma glucose (mg/dL) LS Mean change (SE)", "setting": "[13]", "value": "−69.6 (17.34) mg/dL"}, {"measurement": "A1C (%) LS Mean change (SE)", "setting": "[13]", "value": "−0.34 (0.048) %"}, {"measurement": "Body weight (kg) LS Mean change (SE)", "setting": "[13]", "value": "−1.91 (0.181) kg"}, {"measurement": "DDS2 (score) LS Mean change (SE)", "setting": "[13]", "value": "−0.4 (0.13) score"}, {"measurement": "DTSQ (score) LS Mean change (SE)", "setting": "[13]", "value": "1.5 (0.33) score"}, {"measurement": "Fasting plasma glucose (mg/dL) LS Mean change (SE)", "setting": "[13]", "value": "−11.5 (4.32) mg/dL"}, {"measurement": "SBP (mmHg) LS Mean change (SE)", "setting": "[13]", "value": "−3.4 (0.75) mmHg"}, {"measurement": "Time in range (%) LS Mean change (SE)", "setting": "[13]", "value": "4.164 (2.9683) %"}, {"measurement": "A1C (%) LS Mean change (SE)", "setting": "[14]", "value": "−0.20 (0.057) %"}, {"measurement": "Body weight (kg) LS Mean change (SE)", "setting": "[14]", "value": "−1.72 (0.238) kg"}]}
